Target: T1, KRAS G12D/RAF1 (Homo sapiens, UniProt P01116, G12D)
T1 construct: His6-MBP (N, cleaved yes); made in house; host or cells: E. coli
Assay: Protein-protein interaction (PPI) HTRF assay KRAS G12D/RAF1
Assay type: binding
Settings: Table 4
In short: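 Biotinylated human KRAS (1-169; wt, G12D, G12V) or wt NRAS, GppNHp-loaded, pre-incubated 30 min RT with compound and streptavidin-d2, then His-RAF1 RBD (52-131) with anti-6His Tb cryptate added for 1 h RT. HTRF 665/615 ratio normalized to no compound (0%) and untagged RAF1 (100%); IC50.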

T1 sequence (P01116 with tags, fused parts or gaps isoform P01116-2 G12D): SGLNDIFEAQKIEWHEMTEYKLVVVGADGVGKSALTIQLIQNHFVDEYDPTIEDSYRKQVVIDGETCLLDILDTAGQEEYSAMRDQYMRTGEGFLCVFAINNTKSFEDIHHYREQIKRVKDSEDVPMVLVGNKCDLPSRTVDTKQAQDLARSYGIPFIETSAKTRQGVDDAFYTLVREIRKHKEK

SMILES	IC50
C=C1CN2CCCC2(COc2nc(N3C[C@H]4CC[C@@H](C3)N4)c(C#N)c(N3CC4(CCc5sc(N)c(C#N)c54)C3)n2)C1 (stereo partly drawn) [Compound 94, 2-amino-1′-[5-cyano-2-[(6-methylene-2,3,5,7-tetrahydro-1H-pyrrolizin-8-yl)methoxy]-6-[(1R,5S)-3,8-diazabicyclo[3.2.1]octan-3-yl]pyrimidin-4-yl]spiro[5,6-dihydrocyclopenta[b]thiophene-4,3′-azetidine]-3-carbonitrile]	< 100 nM
CN(C)CC1(COc2nc(N3CCCn4nc(C(=O)N(C)C)c(Cl)c4C3)c(C#N)c(N3CC4(CCCc5sc(N)c(C#N)c54)C3)n2)CC1(F)F (centres unmarked) [Compound 96, 5-[6-(2-amino-3-cyano-spiro[6,7-dihydro-5H-benzothiophene-4,3′-azetidine]-1′-yl)-5-cyano-2-[[1-[(dimethylamino)methyl]-2,2-difluoro-cyclopropyl]methoxy]pyrimidin-4-yl]-3-chloro-N,N-dimethyl-4,6,7,8-tetrahydropyrazolo[1,5-a][1,4]diazepine-2-carboxamide]	1000 to 10000 nM
Cn1nccc1COc1nc(N2C[C@H]3CC[C@@H](C2)N3)c(C#N)c(N2CC3(CCc4sc(N)c(C#N)c43)C2)n1 [Compound 97, 2-amino-1′-[5-cyano-2-[(2-methylpyrazol-3-yl)methoxy]-6-[(1R,5S)-3,8-diazabicyclo[3.2.1]octan-3-yl]pyrimidin-4-yl]spiro[5,6-dihydrocyclopenta[b]thiophene-4,3′-azetidine]-3-carbonitrile]	10000 to 100000 nM
N#Cc1c(N2C[C@H]3CC[C@@H](C2)N3)nc(OCC2(c3ccn[nH]3)CC2)nc1N1CC2(CCc3sc(N)c(C#N)c32)C1 [Compound 98, 2-amino-1′-[5-cyano-6-[(1R,5S)-3,8-diazabicyclo[3.2.1]octan-3-yl]-2-[[1-(1H-pyrazol-5-yl)cyclopropyl]methoxy]pyrimidin-4-yl]spiro[5,6-dihydrocyclopenta[b]thiophene-4,3′-azetidine]-3-carbonitrile]	1000 to 10000 nM
N#Cc1c(N2C[C@H]3CC[C@@H](C2)N3)nc(OC[C@@]23CCCN2C[C@H](F)C3)nc1N1CC2(C1)c1c(sc(N)c1C#N)CC1CC12 (stereo partly drawn) [Compound 99, 2-amino-1′-[5-cyano-6-[(1R,5S)-3,8-diazabicyclo[3.2.1]octan-3-yl]-2-[[(2R,8S)-2-fluoro-1,2,3,5,6,7-hexahydropyrrolizin-8-yl]methoxy]pyrimidin-4-yl]spiro[4a,5,5a,6-tetrahydrocyclopropa[f]benzothiophene-4,3′-azetidine]-3-carbonitrile]	100 to 1000 nM
N#Cc1c(N2C[C@H]3CC[C@@H](C2)N3)nc(OCC2(CN3CCOCC3)CC2)nc1N1CC2(C1)SCc1sc(N)c(C#N)c12 [Compound 100, 2-amino-1′-[5-cyano-6-[(1R,5S)-3,8-diazabicyclo[3.2.1]octan-3-yl]-2-[[1-(morpholinomethyl)cyclopropyl]methoxy]pyrimidin-4-yl]spiro[6H-thieno[2,3-c]thiophene-4,3′-azetidine]-3-carbonitrile]	< 100 nM
N#Cc1c(N2C[C@H]3CC[C@@H](C2)N3)nc(OCC2(CN3CCOCC3)CC2)nc1N1CC2(C1)c1c(sc(N)c1C#N)CC2F (stereo partly drawn) [Compound 101, 2-amino-1′-[5-cyano-6-[(1R,5S)-3,8-diazabicyclo[3.2.1]octan-3-yl]-2-[[1-(morpholinomethyl)cyclopropyl]methoxy]pyrimidin-4-yl]-5-fluoro-spiro[5,6-dihydrocyclopenta[b]thiophene-4,3′-azetidine]-3-carbonitrile]	100 to 1000 nM
Cc1n[nH]nc1COc1nc(N2C[C@H]3CC[C@@H](C2)N3)c(C#N)c(N2CC3(CCc4sc(N)c(C#N)c43)C2)n1 [Compound 108]	10000 to 100000 nM

— patent US12145947B2, “Pyrimidine based modulators and uses thereof” (Quanta Therapeutics, Inc., priority 2022, dated 2024)
